Data reported in patent publication US20240261294A1, “METHOD FOR TREATING IDH INHIBITOR-RESISTANT SUBJECTS” (Eli Lilly and Company, priority 2021, published 2024).
Residue numbers refer to the chain shown, from its start. Where two headings read alike, the source gives them in different places.

How the values were obtained:
IDH2 R140Q_P167R cis = biological target: T1, IDH2 R140Q_P167R cis (Homo sapiens, UniProt P48735, P167R/R140Q); test: Inhibition of 2-HG production in IDH2 mutant U-87 MG cells; assay type: cell-based; details: read-out: Relative IC50 (nM) Mean, inhibition of 2-HG production
T1 construct: expressed in transfected cells; host or cells: U-87 MG
T1 sequence (P48735 40-452 R140Q/P167R): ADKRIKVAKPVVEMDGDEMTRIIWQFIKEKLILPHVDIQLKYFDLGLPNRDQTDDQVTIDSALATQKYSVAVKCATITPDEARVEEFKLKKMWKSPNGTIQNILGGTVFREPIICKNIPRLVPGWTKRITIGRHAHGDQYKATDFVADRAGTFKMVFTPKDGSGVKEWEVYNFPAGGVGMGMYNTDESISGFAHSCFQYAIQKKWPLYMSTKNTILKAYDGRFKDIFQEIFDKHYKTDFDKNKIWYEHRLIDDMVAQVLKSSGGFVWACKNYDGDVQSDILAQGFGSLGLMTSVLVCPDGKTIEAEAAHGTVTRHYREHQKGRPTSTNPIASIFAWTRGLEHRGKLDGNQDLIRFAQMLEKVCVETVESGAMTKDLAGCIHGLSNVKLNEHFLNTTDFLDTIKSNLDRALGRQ

IDH2 R172K_Q316E cis = biological target: T2, IDH2 R172K_Q316E cis (Homo sapiens, UniProt P48735, Q316E/R172K); test: as above; assay type: cell-based; details: 16 hours incubation, 50K cells/well, 100 μl media/well, read-out: Relative IC50 (nM) Mean, inhibition of 2-HG production
T2 construct: expressed in transfected cells; host or cells: U-87 MG
T2 sequence (P48735 40-452 R172K/Q316E): T1 sequence (P48735 40-452 R140Q/P167R) with Q101R, R128P, R133K, Q277E

IC50 (IDH2 R140Q_P167R cis; 16 hours incubation, 50K cells/well, 100 μl media/well): 639 nM
IC50 (IDH2 R140Q_P167R cis; 72 hours incubation, 12.5K cells/well): 104 nM
IC50 (IDH2 R172K_Q316E cis): 76 nM
Structure (SMILES): C=CC(=O)N1CCN([C@@H](CC2CC2)c2ccc([C@H](C)Nc3ncc4c(n3)N(CC)C(=O)OC4)cc2)CC1 [Compound A, 7-[[(1S)-1-[4-[(1S)-2-cyclopropyl-1-(4-prop-2-enoylpiperazin-1-yl)ethyl]phenyl]ethyl]amino]-1-ethyl-4H-pyrimido[4,5-d][1,3]oxazin-2-one]
